Measured values from BigSolDB 2.1.

CCC[C@@H]1C[C@@H](C(=O)N[C@@H]([C@H]2O[C@H](SC)[C@H](O)[C@H]3OC(C)(C)O[C@H]32)[C@H](C)Cl)N(C)C1
solubility (mole fraction)
Details | 273.15 K | 278.15 K | 283.15 K | 288.15 K | 293.15 K | 298.15 K | 303.15 K | 308.15 K | 313.15 K
in acetone | 0.0112 | 0.0132 | 0.0164 | 0.0195 | 0.024 | 0.0283 | 0.0348 | 0.0425 | 0.0502
in acetonitrile | 0.0032 | 0.004 | 0.005 | 0.0063 | 0.0078 | 0.0098 | 0.0123 | 0.0153 | 0.0189
in ethanol | 0.0146 | 0.0179 | 0.0208 | 0.0243 | 0.0292 | 0.0352 | 0.0423 | 0.0506 | 0.0594
in ethyl acetate | 0.0075 | 0.0093 | 0.0114 | 0.0143 | 0.0175 | 0.0215 | 0.026 | 0.0319 | 0.0388
in isobutanol | 0.0139 | 0.0175 | 0.022 | 0.0274 | 0.0334 | 0.0409 | 0.0491 | 0.0584 | 0.0696
in isopropanol | 0.0102 | 0.0124 | 0.0149 | 0.018 | 0.022 | 0.0266 | 0.0324 | 0.0393 | 0.0468
in methanol | 0.0212 | 0.0255 | 0.0306 | 0.0351 | 0.0408 | 0.0481 | 0.0554 | 0.0651 | 0.0746
in methyl acetate | 0.0087 | 0.0102 | 0.0132 | 0.0162 | 0.0198 | 0.024 | 0.0293 | 0.0355 | 0.042
in n-butanol | 0.0166 | 0.0213 | 0.0272 | 0.0325 | 0.0391 | 0.0478 | 0.0571 | 0.0672 | 0.0794
in n-propanol | 0.015 | 0.0189 | 0.0238 | 0.0294 | 0.0363 | 0.0428 | 0.0529 | 0.0637 | 0.0751
in n-propyl acetate | 0.0065 | 0.008 | 0.0106 | 0.0124 | 0.0152 | 0.0183 | 0.0223 | 0.0283 | 0.0347
in sec-butanol | 0.0229 | 0.0282 | 0.0344 | 0.0413 | 0.0507 | 0.0597 | 0.0709 | 0.0813 | 0.0947
